Patent US20140234502A1, “Treatment of Produce” (Rohm and Haas Company, priority 2009, published 2014)

How the values were obtained:
Type in all cases: in vivo, pear
Conference Pears [1] = test: Color rating of Conference pears; conditions: ambient 5-8 days; for Italy color / SW France color: scale of 0 (green) to 5 (yellow)
From the text: (§1) Pears (Conference, William's/Bartlett, or Packam's) were harvested at maturity for long storage. Number of fruits and replicates were selected according to the size of the chamber in which to apply 1-MCP and according to the statistical design. Airtight containers in the range of 1 cubic meter were used for the application of both 1-MCP and ethylene. 1-MCP was released from SmartFresh™ powder that contained 0.14% 1-MCP by weight (obtained from AgroFresh, Inc.). The amount of that SmartFresh™ powder was chosen to yield the target atmospheric concentration of 1-MCP in the chosen container. For example, the 1-MCP released from 1000 mg of that SmartFresh™ powder in 1 cubic meter yielded 1-MCP concentration in the atmosphere of 625 ppb.
(§2) The chosen amount of SmartFresh™ powder was dissolved in water into a tight flask and shaken until all the powder was dissolved. The flask was then put it into the airtight container and opened, to release the 1-MCP. At the same time of the opening of the 1-MCP flask, ethylene was injected with a syringe into the airtight container. Ethylene was taken from a compressed tank at known concentration: either taken directly or released into a flask. In the latter case the concentration was measured by gas-chromatograph to determine the quantity of volume to inject into the airtight container to get the target concentration.
(§3) The exposure to atmosphere containing either 1-MCP alone or 1-MCP and ethylene was done on cold pears (already cooled down to non-ambient storage temperature) within a maximum of 7 days from harvest and lasted 24 hours. At the end of the application, the airtight container was vented for 15 minutes and the fruits were put into RA or CA storage. RA storage was at temperature of −1° C. to 1° C. and at relative humidity of 80% to 98%. CA storage had the same temperature and humidity of RA storage, had oxygen level of 1% to 3%, by volume based on the volume of the atmosphere and had carbon dioxide level of 0.5% to 2%, by volume based on the volume of the atmosphere.
Pears were tested for firmness, as described above, and were rated for color on a scale of 0 (green) to 5 (yellow).

Conference Pears [2] = test: Examination of Conference pears for scald; conditions: Example 9, CA 6 months; for percent with scald: Italy
From the text: as §1, §2, §3
Pears from Italy (the same pears whose firmness is reported herein above in Example 5) were examined for scald after exposure to ambient conditions for the number of days shown below.

Conference Pears [3] = test: Inspection of Conference pears for rot, bruising and internal browning
From the text: as §1, §2, §3
After RA storage, pears were exposed to ambient for the number of days shown below and then inspected for rot, bruising, and internal browning (“I.B.”). Results shown are the percentage of pears having the disorder.
Pears from SW France were examined as in Example 7, and the percent disordered fruit was as follows: […]

[4] = test system: Pears (Conference, William's/Bartlett, or Packam's); test: Firmness of pears, summary over all Examples; conditions: each of the Examples; samples exposed to 1-MCP and not to ethylene
From the text: as §1
The chosen amount of SmartFresh™ powder was dissolved in water into a tight flask and shaken until all the powder was dissolved. The flask was then put it into the airtight container and opened, to release the 1-MCP. […] In the latter case the concentration was measured by gas-chromatograph to determine the quantity of volume to inject into the airtight container to get the target concentration. […]
Pears denoted with a single number (e.g., “300”) received 1-MCP treatment with that concentration, in ppb, of 1-MCP in the atmosphere (e.g., 300 ppb) and were not exposed to exogenous ethylene. […] Reported quantity is “firmness” (“F”), the penetrometer force in kgf.

Packam's Pears = test: Firmness of Packam's pears by penetrometer after treatment, non-ambient storage and shelf life; conditions: South Africa, ambient 5 days, listed as 600
From the text: as §1, §2, §3
In addition, samples of pears (from the same orchards from which pears treated with 1-MCP alone or 1-MCP and ethylene were harvested) were put into an airtight container for 24 hours at the temperature as the treated pears in order to reproduce the same environmental conditions. Then they were stored in the same rooms or in separated rooms in the same conditions of RA and CA as the treated pears. […]
Pears denoted with a single number (e.g., “300”) received 1-MCP treatment with that concentration, in ppb, of 1-MCP in the atmosphere (e.g., 300 ppb) and were not exposed to exogenous ethylene. […] Reported quantity is “firmness” (“F”), the penetrometer force in kgf. […]

Conference Pears [5] = test: Firmness of Conference pears by penetrometer after treatment, non-ambient storage and shelf life; design: key to SW France F (firmness) / Italy F (firmness) / Average F (firmness): penetrometer force in kgf (8 mm probe); conditions: for ES A F (firmness): farm ES A; for ES B F (firmness): farm ES B; for IT F (firmness): farm IT; for firmness: Example 9, CA 6 months; for Italy F (firmness) / firmness: Italy; for Orchard #1 F (firmness) / Orchard #2 F (firmness) / Orchard #3 F (firmness): Example 11, Spain, RA 3 months
From the text: as §1, §2, §3
In addition, samples of pears (from the same orchards from which pears treated with 1-MCP alone or 1-MCP and ethylene were harvested) were put into an airtight container for 24 hours at the temperature as the treated pears in order to reproduce the same environmental conditions. Then they were stored in the same rooms or in separated rooms in the same conditions of RA and CA as the treated pears. These pears received no exposure to 1-MCP, exogenous ethylene, or any combination thereof, and they are labeled “control” below.
Length of non-ambient storage at present commercial temperature and storage regime was generally of 2-4 months in RA and 6 months in CA, unless otherwise specified, according to normal commercial practice.
All pears received the same progression of non-ambient storage followed by exposure to ambient conditions (“shelf life”).
Pears denoted with a single number (e.g., “300”) received 1-MCP treatment with that concentration, in ppb, of 1-MCP in the atmosphere (e.g., 300 ppb) and were not exposed to exogenous ethylene. Pears denoted with two numbers (e.g. “300+600”) were treated with both that concentration in ppb of 1-MCP and that concentration in ppb of ethylene (e.g., 300 ppb of 1-MCP and 600 ppb of ethylene). The firmness of pears was tested using commercial penetrometers with test probe of 8 mm diameter. Reported quantity is “firmness” (“F”), the penetrometer force in kgf.

[6] = Example 3, RA 3 months, ambient 5 to 8 days
[7] = Example 4, CA 6 months, ambient 5 to 8 days
[8] = Example 5, RA 3 months, ambient 5-8 days
[9] = Example 6, CA 6 months, ambient 5-8 days
[10] = Example 7, RA 4 months, SW France, 13 ambient days
[11] = Example 8, CA 6 months, ambient 13 days, SW France

In the case of `CC1=CC1` [Sample 1-MCP, 1-MCP], the “color rating (in words)” value (Conference Pears [1]; Example 6, CA 6 months, on average) is reported as “undesirably too green color rating”, the “pears with scald (in words)” value (Conference Pears [2]) is reported as “fewer pears with scald than the control group” and the “percentage of disorders (in words)” value (Conference Pears [3]; Example 7, RA 4 months) is reported as “lower percentage of disorders than the control pears”. The “diseased fruits (in words)” value (Conference Pears [3]; Example 8, CA 6 months, ambient 13 days) was “fewer diseased fruits that the control sample”, the “resistance to deterioration (in words)” value (Conference Pears [3]; Examples 7, 8, and 9) was “showed resistance to deterioration” and the “firmness (in words)” value [4] was “undesirably high”.
In the case of `CC1=CC1` [600(C), 1-MCP], the Italy color (Conference Pears [1]; Example 5, RA 3 months) is reported as 2.1, the “SW France color” value (Conference Pears [1]; Example 5, RA 3 months) is reported as 2.95 and the Italy color (Conference Pears [1]; Example 6, CA 6 months) is reported as 3.4. For the same molecule, the “SW France color” value (Conference Pears [1]; Example 6, CA 6 months) was 2.65, the Average color (Conference Pears [1]; Example 6, CA 6 months, average of SW France and Italy, scale 0 (green) to 5 (yellow)) was 3.0 and the percent with scald (Conference Pears [2]; 0 ambient days) was 0%. The percent with scald (Conference Pears [2]; 7 ambient days) was 1%, the “8 weeks F (firmness)” value (Packam's Pears; RA for 8 weeks) was 6.5 kgf and the “12 weeks F (firmness)” value (Packam's Pears; RA for 12 weeks) was 6.3 kgf. The “AV F (firmness), average of the results from the seven farms” value (Conference Pears [5]; [6]) was 5.7 kgf, the “ES A F (firmness)” value (Conference Pears [5]; [6]) was 6.3 kgf and the “ES B F (firmness)” value (Conference Pears [5]; [6]) was 6.3 kgf. For the same molecule, the “FR A F (firmness)” value (Conference Pears [5]; Example 3, RA 3 months, ambient 5 to 8 days, farm FR A) was 5.4 kgf, the “FR B F (firmness)” value (Conference Pears [5]; Example 3, RA 3 months, ambient 5 to 8 days, farm FR B) was 5.2 kgf and the “IT F (firmness)” value (Conference Pears [5]; [6]) was 5.7 kgf. For the same molecule, the “NL A F (firmness)” value (Conference Pears [5]; Example 3, RA 3 months, ambient 5 to 8 days, farm NL A) was 5.3 kgf, the “NL B F (firmness)” value (Conference Pears [5]; Example 3, RA 3 months, ambient 5 to 8 days, farm NL B) was 5.6 kgf and the “Av F (firmness), average of the results from the six farms” value (Conference Pears [5]; [7]) was 5.4 kgf. For the same molecule, the “ES A F (firmness)” value (Conference Pears [5]; [7]) was 6.1 kgf, the “ES B F (firmness)” value (Conference Pears [5]; [7]) was 5.6 kgf and the “FR F (firmness)” value (Conference Pears [5]; Example 4, CA 6 months, ambient 5 to 8 days, farm FR) was 5.1 kgf. For the same molecule, the “IT F (firmness)” value (Conference Pears [5]; [7]) was 4.9 kgf, the “NL A F (firmness)” value (Conference Pears [5]; Example 4, CA 6 months, ambient 5 to 8 days, farm NL A) was 5.1 kgf and the “NL B F (firmness)” value (Conference Pears [5]; Example 4, CA 6 months, ambient 5 to 8 days, farm NL B) was 5.7 kgf. The “Italy F (firmness)” value (Conference Pears [5]; [8]) was 5.7, the “SW France F (firmness)” value (Conference Pears [5]; [8]) was 5.2 and the “Italy F (firmness)” value (Conference Pears [5]; [9]) was 4.9. For the same molecule, the “SW France F (firmness)” value (Conference Pears [5]; [9]) was 5.1, the “Average F (firmness)” value (Conference Pears [5]; Example 6, CA 6 months, ambient 5-8 days, average of SW France and Italy) was 5.0 and the firmness (Conference Pears [5]; 0 ambient days) was 6.8 kgf. The firmness (Conference Pears [5]; 7 ambient days) was 4.9 kgf, the “Average F (firmness), average of the two orchards” value (Conference Pears [5]; Example 10, RA 3 months, ambient 5 days) was 5.58 kgf and the “NL A F (firmness)” value (Conference Pears [5]; Example 10, RA 3 months, ambient 5 days, NL A) was 5.65 kgf. For the same molecule, the “NL B F (firmness)” value (Conference Pears [5]; Example 10, RA 3 months, ambient 5 days, NL B) was 5.52 kgf, the “Orchard #1 F (firmness)” value (Conference Pears [5]; 0 days ambient) was 5.95 kgf and the “Orchard #2 F (firmness)” value (Conference Pears [5]; 0 days ambient) was 6.07 kgf. The “Orchard #3 F (firmness)” value (Conference Pears [5]; 0 days ambient) was 6.46 kgf, the “Orchard #1 F (firmness)” value (Conference Pears [5]; 7 days ambient) was 5.95 kgf and the “Orchard #2 F (firmness)” value (Conference Pears [5]; 7 days ambient) was 6.03 kgf. For the same molecule, the “Orchard #3 F (firmness)” value (Conference Pears [5]; 7 days ambient) was 6.30 kgf, the “Orchard #1 F (firmness)” value (Conference Pears [5]; 12 days ambient) was 5.75 kgf and the “Orchard #2 F (firmness)” value (Conference Pears [5]; 12 days ambient) was 6.17 kgf. The “Orchard #3 F (firmness)” value (Conference Pears [5]; 12 days ambient) was 6.58 kgf, the “percentage of pears having internal browning (I.B.)” value (shortened to “percentage … (I.B.)”) (Conference Pears [3]; Example 7, RA 4 months, Loire, France, 11 ambient days) was 0 percentage and the “percentage … (I.B.)” value (Conference Pears [3]; Example 7, RA 4 months, Loire, France, 13 ambient days) was 0 percentage. The “percentage … (I.B.)” value (Conference Pears [3]; Example 7, RA 4 months, Loire, France, 15 ambient days) was 0 percentage, the “percentage of pears having bruising” value (Conference Pears [3]; [10]) was 0 percentage and the “percentage … (I.B.)” value (Conference Pears [3]; [10]) was 0 percentage. The “percentage of pears having rot” value (Conference Pears [3]; [10]) was 0 percentage, the “percent disordered fruit: I.B.” value (Conference Pears [3]; [11]) was 30% and the “percent disordered fruit: rot” value (Conference Pears [3]; [11]) was 13%.
